We go through one compound from PMC9251361, “Effects of LPS Composition in Escherichia coli on Antibacterial Activity and Bacterial Uptake of Antisense Peptide-PNA Conjugates” (Frontiers in Microbiology, 2022).

One assay concerns E. coli K12 MG1655. In words: microbe, parasite or virus in culture. It is filed as cell-based, Escherichia coli. Conditions: Escherichia coli; Table 4; strain MG1655; MHB, 37°C, 18 h; read-out: MIC values, Carbenicillin. On the procedure:
(§1) All strains used in this study are listed in Supplementary Table S1. E. coli strains WD101 and WD101ΔeptAΔarnD (WD101ΔΔ) were kindly provided by Professor M. Stephen Trent (University of Georgia, USA). E. coli strains DB wild type, DB L5, and DB L9 were kindly provided by Dr. Douglas Browning (University of Birmingham, UK). Single deletion strains for envelope mutants were obtained from the Keio-collection (Baba et al., [2006]). All strains were grown in non-cation adjusted Muller Hinton broth (MHB) (Sigma, Cat. No. 70192). BPP-PNA conjugates (Table 1) were obtained as described previously (Good et al., [2001]; Ghosal et al., [2013]; Hansen et al., [2016]).
(§2) Minimum inhibitory concentration (MIC) values were determined by broth microdilution according to standard protocols adapted to peptide-based antimicrobial compounds (Goltermann and Nielsen, [2020]). Briefly, 190 μl bacterial cell culture containing ≈10^5 cfu/ml was dispensed into a 96-well plate (Thermo Scientific, Nunc Cat. No. 260896, 96F straight w/lid) along with 10 μl PNA stock solution or antibiotic. The plate was incubated in a Tecan Genios plate reader at 37°C for 18 h, and OD was measured every 20 min at 595 nm. The MIC was determined as the lowest concentration, which inhibited visible growth (OD < 0.1) in the wells. […] Experiments were performed in triplicates as a minimum.

The test system of assay [1] is E. coli BW25113 hydN mutant (Keio collection). In words: MIC broth microdilution. It is filed as cell-based. Conditions: Escherichia coli, BW25113, 18 h, read-out: MIC values, Carbenicillin. On the procedure: as §1, §2
Assay [2] concerns E. coli BW25113 metL mutant (Keio collection). In words: MIC broth microdilution. It is filed as cell-based. Conditions: Escherichia coli, BW25113, 18 h, read-out: MIC values, Carbenicillin. On the procedure:
as §1, §2

Assay [3] relates to E. coli BW25113 mrcB mutant (Keio collection). As to the kind of experiment: MIC broth microdilution. It is filed as cell-based. Conditions: Escherichia coli, BW25113, 18 h, read-out: MIC values, Carbenicillin. On the procedure:
as §1, §2

Assay [4] deals with E. coli BW25113 ppiB mutant (Keio collection). In words: MIC broth microdilution. It is filed as cell-based. To be noted: Escherichia coli, BW25113, 18 h, read-out: MIC values, Carbenicillin. On the procedure:
as §1, §2

The subject of assay [5] is E. coli BW25113 tolB mutant (Keio collection). As to the kind of experiment: MIC broth microdilution. Conditions: Escherichia coli, BW25113, 18 h, read-out: MIC values, Carbenicillin. It is filed as cell-based. On the procedure: as §1, §2
Assay [6] concerns E. coli BW25113 tolQ mutant (Keio collection). As to the kind of experiment: MIC broth microdilution. It is filed as cell-based. To be noted: Escherichia coli, BW25113, 18 h, read-out: MIC values, Carbenicillin. On the procedure: as §1, §2
Assay [7] concerns E. coli BW25113 tolR mutant (Keio collection). In words: MIC broth microdilution. It is filed as cell-based. Conditions: Escherichia coli, BW25113, 18 h, read-out: MIC values, Carbenicillin. On the procedure: as §1, §2
Another assay relates to E. coli BW25113. In words: MIC broth microdilution. It is filed as cell-based. Conditions: Escherichia coli; Table 4; strain BW25113; MHB, 37°C, 18 h; read-out: MIC values, Carbenicillin. On the procedure:
as §1, §2

The subject of assay [8] is E. coli tolB, tolQ, and tolR mutants. As to the kind of experiment: MIC broth microdilution, tol mutants as a group. It is filed as cell-based, Escherichia coli. On the procedure:
as §2
The Pal-Tol-system, an envelope spanning complex involved in maintaining the outer membrane integrity, has previously been implicated in general antibiotic susceptibility, and thus was also investigated.

≈ marks a conversion by molar mass, not a printed value.

For `CC1(C)S[C@@H]2[C@H](NC(=O)C(C(=O)O)c3ccccc3)C(=O)N2[C@H]1C(=O)O` (stereo partly shown) [Carbenicillin], the MIC was 16 µg/mL (≈ 42.3 µM) in the assay on E. coli K12 MG1655; 16 µg/mL (≈ 42.3 µM) in assay [1]; 16 µg/mL (≈ 42.3 µM) in assay [2]; 4 µg/mL (≈ 10.6 µM) in assay [3]; 16 µg/mL (≈ 42.3 µM) in assay [4]; at most 2 µg/mL in assay [5]. Also, the MIC was at most 2 µg/mL in assay [6], 2 to 4 µg/mL (≈ 5.29 to 10.6 µM) in [7] and 8 µg/mL (≈ 21.1 µM) in the assay with E. coli BW25113. In assay [8], the “fold increase in carbenicillin susceptibility” value is on record as “circa 8 fold”.
